Calls of active or inactive are those of the source.
How the values were obtained:
Melanocortin receptor 4 = Melanocortin receptor 4 (Homo sapiens, UniProt P32245); type: functional, cell-based;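 also: Cell-based assay with luminescence read-out, confirmatory dose-response testing for agonist activity of biased ligands at MC4R; human U2OS cells with tagged receptor and beta-arrestin; potency of agonists that increase receptor coupling to beta-arrestin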
[1] = target: T1, Calpain-2 catalytic subunit (Sus scrofa, UniProt P43367); experiment: m-calpain protease blockers, concentration series – biochemical, fluorogenic peptide substrate, dose response (AID 1420); type: functional
T1 sequence (P43367 whole entry): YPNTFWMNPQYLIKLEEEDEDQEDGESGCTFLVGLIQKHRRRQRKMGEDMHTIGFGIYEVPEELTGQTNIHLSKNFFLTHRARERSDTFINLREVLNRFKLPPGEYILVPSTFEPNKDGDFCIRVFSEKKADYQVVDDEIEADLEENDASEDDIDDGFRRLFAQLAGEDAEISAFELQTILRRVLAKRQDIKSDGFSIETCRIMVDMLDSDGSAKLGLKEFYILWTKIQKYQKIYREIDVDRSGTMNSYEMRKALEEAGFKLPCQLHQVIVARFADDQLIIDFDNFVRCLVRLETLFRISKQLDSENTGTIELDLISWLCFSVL

Orexin receptor type 2 [2] = target: T2, Orexin receptor type 2 (Homo sapiens, UniProt O43614); experiment: Counterscreen assay for antagonists of the orexin 1 receptor (OX1R; HCRTR1): Homogeneous Time Resolved Fluorescence (HTRF)-based cell-based dose response assay for antagonists of the orexin 2 receptor (OX2R; HCRTR2), run by assay provider.; type: functional
T2 sequence (O43614 whole entry): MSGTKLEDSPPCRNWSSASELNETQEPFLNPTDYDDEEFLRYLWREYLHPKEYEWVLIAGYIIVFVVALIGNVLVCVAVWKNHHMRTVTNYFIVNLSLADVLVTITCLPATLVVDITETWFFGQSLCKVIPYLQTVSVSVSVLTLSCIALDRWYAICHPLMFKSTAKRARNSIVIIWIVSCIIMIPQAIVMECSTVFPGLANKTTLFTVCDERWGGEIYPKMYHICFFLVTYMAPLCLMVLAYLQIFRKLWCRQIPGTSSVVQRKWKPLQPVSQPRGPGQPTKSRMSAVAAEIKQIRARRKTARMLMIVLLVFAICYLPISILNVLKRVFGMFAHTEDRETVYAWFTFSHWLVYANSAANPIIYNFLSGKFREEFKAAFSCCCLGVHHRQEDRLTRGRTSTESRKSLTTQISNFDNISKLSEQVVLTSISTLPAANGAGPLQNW

[3] = target: T3, Orexin/Hypocretin receptor type 1 (Homo sapiens, UniProt O43613); experiment: Homogeneous Time Resolved Fluorescence (HTRF)-based cell-based high throughput dose response assay for antagonists of the orexin 1 receptor (OX1R; HCRTR1). [Related pubchem assays (depositor defined):AID434989, AID435008, AID463079, AID485270, AID492963, AID492964, AID492965, AID493232, AID504717, AID504718]; type: functional
T3 sequence (O43613 whole entry): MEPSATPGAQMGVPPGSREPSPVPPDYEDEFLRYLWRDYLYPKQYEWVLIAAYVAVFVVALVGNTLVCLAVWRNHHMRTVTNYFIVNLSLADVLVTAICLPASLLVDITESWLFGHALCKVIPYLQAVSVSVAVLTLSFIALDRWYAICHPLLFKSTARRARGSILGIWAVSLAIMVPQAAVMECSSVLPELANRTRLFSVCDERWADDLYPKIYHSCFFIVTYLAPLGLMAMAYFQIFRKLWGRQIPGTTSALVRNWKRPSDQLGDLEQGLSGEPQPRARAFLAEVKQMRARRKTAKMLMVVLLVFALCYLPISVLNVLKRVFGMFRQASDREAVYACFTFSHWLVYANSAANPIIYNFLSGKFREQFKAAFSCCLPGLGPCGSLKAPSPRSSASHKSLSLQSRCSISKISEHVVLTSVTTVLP

CHO-K1 = experiment: Counterscreen for antagonists of the orexin 1 receptor (OX1R; HCRTR1): Homogeneous time resolved fluorescence (HTRF)-based cell-based dose response assay to identify antagonists of the parental CHO-K1 cell line. [Related pubchem assays (depositor defined):AID434989, AID435008, AID463079, AID485270, AID492963, AID492964, AID492965, AID493232, AID504699, AID504701]; type: functional; conditions: Cricetulus griseus;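 also: potency for inhibition of ATP-stimulated IP1 production as antagonists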
Orexin receptor type 2 [4] = target: T2, Orexin receptor type 2; experiment: Counterscreen assay for antagonists of the orexin 1 receptor (OX1R; HCRTR1): Fluorescence-based cell-based dose response assay for antagonists of the orexin 2 receptor (OX2R; HCRTR2), run by assay provider.; type: functional
[5] = Counterscreen for antagonists of the orexin 1 receptor (OX1R; HCRTR1): Fluorescence-based cell-based high throughput dose response assay to identify antagonists of the parental CHO cell line. [Related pubchem assays (depositor defined):AID434989, AID435008, AID463079, AID485270, AID492963, AID492964, AID492965, AID493232, AID504699, AID504701]; type: functional
[6] = target: T3, Orexin/Hypocretin receptor type 1; experiment: Fluorescence-based cell-based high throughput dose response assay for antagonists of the orexin 1 receptor (OX1R; HCRTR1). [Related pubchem assays (depositor defined):AID434989, AID435008, AID463079, AID485270, AID492963, AID492964, AID492965, AID493232, AID504717, AID504718]; type: functional
[7] = target: T4, Heat shock factor protein 1 (Mus musculus, UniProt P38532); experiment: enhancement of HSF1-driven luciferase signal – cell-based, NIH3T3, luminescence, dose retest, confirmation (AID 435004); type: functional;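 also: stress induced by proteasome inhibitor MG132 added 30 min after compound; luciferase reporter driven by HSF1 response element in NIH3T3 cells; actives raise luminescence as potentiators of the MG132 stress response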
T4 sequence (P38532 whole entry): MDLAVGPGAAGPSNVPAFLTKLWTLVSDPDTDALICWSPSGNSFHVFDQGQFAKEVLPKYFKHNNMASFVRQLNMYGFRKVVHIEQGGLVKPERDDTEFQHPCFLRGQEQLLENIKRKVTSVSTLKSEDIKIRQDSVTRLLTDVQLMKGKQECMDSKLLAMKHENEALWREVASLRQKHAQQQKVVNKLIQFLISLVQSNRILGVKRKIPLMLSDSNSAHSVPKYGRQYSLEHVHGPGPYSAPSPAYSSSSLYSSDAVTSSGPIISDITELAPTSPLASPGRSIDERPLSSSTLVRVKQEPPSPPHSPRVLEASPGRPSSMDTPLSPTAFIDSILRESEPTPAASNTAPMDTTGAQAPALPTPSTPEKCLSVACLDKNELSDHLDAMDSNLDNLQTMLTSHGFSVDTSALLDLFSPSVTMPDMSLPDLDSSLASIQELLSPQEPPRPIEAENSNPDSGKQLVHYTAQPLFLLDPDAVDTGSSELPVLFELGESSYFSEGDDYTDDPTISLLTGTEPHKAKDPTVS

[8] = target: Hepatocyte nuclear factor 4-alpha (Homo sapiens, UniProt P41235); type: functional, cell-based;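 also: biochemical luminescence-based dose-response counterscreen measuring inhibition of HNF4 dimerization, run alongside a screen for blockers of ABHD5–perilipin-5 interaction; split luciferase complementation of HNF4 fusion proteins in cell lysate measuring dimerization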
Hepatocyte nuclear factor 4-alpha, sequence (P41235 whole entry, the tested form may be a part): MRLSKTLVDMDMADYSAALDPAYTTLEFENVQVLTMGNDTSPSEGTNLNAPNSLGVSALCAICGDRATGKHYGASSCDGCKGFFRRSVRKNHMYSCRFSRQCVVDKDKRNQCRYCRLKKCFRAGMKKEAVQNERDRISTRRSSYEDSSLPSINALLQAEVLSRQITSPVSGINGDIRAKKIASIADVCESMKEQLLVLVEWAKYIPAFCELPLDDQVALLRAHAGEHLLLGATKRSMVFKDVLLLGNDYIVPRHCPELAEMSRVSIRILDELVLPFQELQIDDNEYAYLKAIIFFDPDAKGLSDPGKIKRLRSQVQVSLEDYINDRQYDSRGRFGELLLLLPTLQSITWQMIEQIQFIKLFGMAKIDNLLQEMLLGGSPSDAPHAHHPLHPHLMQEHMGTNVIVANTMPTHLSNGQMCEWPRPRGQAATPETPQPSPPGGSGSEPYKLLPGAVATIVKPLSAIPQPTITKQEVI

[9] = target: T5, Polyadenylate-binding protein 1 (Homo sapiens, UniProt P11940); experiment: MLLE domain peptide-binding blockers, IC50 – biochemical, fluorescence polarization, FITC-PAM2 peptide, dose response (AID 602259); type: functional; conditions: read-out: IC50_Mean
T5 sequence (P11940 whole entry, the tested form may be a part): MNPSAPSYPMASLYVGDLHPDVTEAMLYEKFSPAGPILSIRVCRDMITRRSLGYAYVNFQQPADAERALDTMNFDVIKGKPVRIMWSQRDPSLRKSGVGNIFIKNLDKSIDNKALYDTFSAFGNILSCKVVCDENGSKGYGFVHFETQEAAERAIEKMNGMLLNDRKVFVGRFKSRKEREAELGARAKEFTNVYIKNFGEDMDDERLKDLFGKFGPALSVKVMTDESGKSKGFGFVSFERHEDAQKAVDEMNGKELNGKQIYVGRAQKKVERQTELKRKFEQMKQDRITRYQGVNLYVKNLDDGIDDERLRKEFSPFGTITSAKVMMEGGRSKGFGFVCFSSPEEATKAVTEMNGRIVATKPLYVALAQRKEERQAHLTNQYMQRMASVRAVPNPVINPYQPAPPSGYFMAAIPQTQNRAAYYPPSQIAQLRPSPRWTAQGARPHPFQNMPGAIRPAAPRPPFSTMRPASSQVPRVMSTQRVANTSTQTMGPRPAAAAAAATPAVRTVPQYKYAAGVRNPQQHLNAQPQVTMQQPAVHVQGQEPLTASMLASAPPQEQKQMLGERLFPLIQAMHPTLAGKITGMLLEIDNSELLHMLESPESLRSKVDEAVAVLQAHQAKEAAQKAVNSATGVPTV

[10] = target: T6, Mitochondrial peptide methionine sulfoxide reductase (Bos taurus, UniProt P54149); experiment: Absorbance-based biochemical high throughput dose response assay for activators of Methionine sulfoxide reductase A (MsrA).; type: functional
T6 sequence (P54149 whole entry): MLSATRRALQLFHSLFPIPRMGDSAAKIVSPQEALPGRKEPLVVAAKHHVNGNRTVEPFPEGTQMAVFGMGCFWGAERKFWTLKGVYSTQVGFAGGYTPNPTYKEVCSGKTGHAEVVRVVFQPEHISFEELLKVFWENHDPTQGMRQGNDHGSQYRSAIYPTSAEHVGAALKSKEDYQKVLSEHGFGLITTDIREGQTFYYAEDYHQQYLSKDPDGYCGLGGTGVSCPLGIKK

[11] = target: T5, Polyadenylate-binding protein 1; experiment: MLLE binding blockers, Cy5 peptide tracer – biochemical, fluorescence polarization, Cy5-PAM2 peptide, secondary, miRNA deadenylation inhibitor project, dose response (AID 602260); type: functional; conditions: read-out: IC50_Mean
[12] = target: Peroxisome proliferator-activated receptor gamma/Nuclear receptor coactivator 2 (Homo sapiens, UniProt P37231); experiment: TR-FRET dose response biochemical High Throughput Screening assay for agonists of the steroid receptor coactivator 2 (SRC-2) recruitment by the peroxisome proliferator-activated receptor gamma (PPAR gamma): non-selective agonists. [Related pubchem assays: 1297, 1032 ]; type: functional
[13] = NIH-3T3 fibroblast cytotoxicity, dose response, cytotoxicity control, cell-based, fluorescence, Alamar Blue, secondary assay (AID 2327); type: functional;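 also: NIH-3T3 mouse fibroblasts cultured with fluconazole at 8 µg/mL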
[14] = target: ATP-dependent molecular chaperone HSP82 (Candida albicans (strain WO-1) (Yeast), UniProt C4YTQ8); experiment: steroid-induced GRE reporter decrease in yeast – S. cerevisiae, luminescence, Hsp90 inhibitor project, dose response (AID 2400); type: functional, cell-based;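 also: beta-galactosidase luminescence from glucocorticoid response element reporter as proxy for Hsp90 function; inhibitor potency where signal loss means Hsp90 inhibition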
ATP-dependent molecular chaperone HSP82, sequence (C4YTQ8 whole entry): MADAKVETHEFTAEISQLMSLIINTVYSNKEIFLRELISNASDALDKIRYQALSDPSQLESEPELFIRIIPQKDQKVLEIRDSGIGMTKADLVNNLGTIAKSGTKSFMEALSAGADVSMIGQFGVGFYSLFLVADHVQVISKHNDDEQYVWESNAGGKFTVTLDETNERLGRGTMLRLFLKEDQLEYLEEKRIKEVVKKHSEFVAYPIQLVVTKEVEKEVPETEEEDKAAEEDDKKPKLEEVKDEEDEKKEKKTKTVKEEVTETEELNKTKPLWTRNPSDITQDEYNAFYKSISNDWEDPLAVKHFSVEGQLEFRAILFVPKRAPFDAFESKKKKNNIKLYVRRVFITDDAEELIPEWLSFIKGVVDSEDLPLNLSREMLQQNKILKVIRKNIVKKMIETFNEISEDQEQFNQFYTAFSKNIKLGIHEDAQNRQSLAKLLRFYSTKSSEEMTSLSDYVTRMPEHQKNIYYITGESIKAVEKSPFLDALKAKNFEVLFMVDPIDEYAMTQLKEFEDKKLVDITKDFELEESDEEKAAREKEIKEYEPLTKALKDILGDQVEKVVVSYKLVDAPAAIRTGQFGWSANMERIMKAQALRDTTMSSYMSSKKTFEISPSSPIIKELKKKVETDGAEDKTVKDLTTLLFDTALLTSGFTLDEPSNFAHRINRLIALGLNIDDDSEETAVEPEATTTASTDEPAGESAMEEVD

[15] = target: Peroxisome proliferator-activated receptor gamma/Nuclear receptor coactivator 3 (Homo sapiens, UniProt P37231); experiment: TR-FRET dose response biochemical High Throughput Screening assay for agonists of the steroid receptor coactivator 3 (SRC-3) recruitment by the peroxisome proliferator-activated receptor gamma (PPAR gamma): non-selective agonists. [Related pubchem assays: 1301 (Confirmation screen.), 1048 (Primary screen.)]; type: functional
[16] = target: Peroxisome proliferator-activated receptor gamma/Nuclear receptor coactivator 1 (Homo sapiens, UniProt P37231); experiment: TR-FRET dose response biochemical High Throughput Screening assay for agonists of the steroid receptor coactivator 1 (SRC-1) recruitment by the peroxisome proliferator-activated receptor gamma (PPAR gamma): non-selective agonists. [Related pubchem assays (depositor defined):AID1300, AID1808, AID504735, AID631]; type: protein assay
Troponin, cardiac muscle = Troponin, cardiac muscle (Homo sapiens, UniProt P19429+P45379+P63316); experiment: Fluorescence-based biochemical high throughput dose response assay for activators of the calcium sensitivity of cardiac Regulated Thin Filaments (RTF). [Related pubchem assays (depositor defined):AID493008, AID493018, AID504382, AID504383]; type: protein-complex assay
[17] = target: T7, Serine/threonine-protein phosphatase (Candida dubliniensis (strain CD36 / CBS 7987 / NCPF 3949 / NRRLY-17841) (Yeast), UniProt B9W6M3); experiment: blockers of CaCl2-induced CDRE-lacZ signaling – S. cerevisiae, luminescence, secondary, dose response (AID 2388); type: functional, cell-based;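 also: yeast reporter cells carrying a calcineurin-responsive lacZ construct stimulated with calcium chloride; luminescent beta-galactosidase reporter signal in whole cells rather than isolated phosphatase activity; potency for inhibition where a drop in reporter signal means calcineurin blockade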
T7 sequence (B9W6M3 whole entry): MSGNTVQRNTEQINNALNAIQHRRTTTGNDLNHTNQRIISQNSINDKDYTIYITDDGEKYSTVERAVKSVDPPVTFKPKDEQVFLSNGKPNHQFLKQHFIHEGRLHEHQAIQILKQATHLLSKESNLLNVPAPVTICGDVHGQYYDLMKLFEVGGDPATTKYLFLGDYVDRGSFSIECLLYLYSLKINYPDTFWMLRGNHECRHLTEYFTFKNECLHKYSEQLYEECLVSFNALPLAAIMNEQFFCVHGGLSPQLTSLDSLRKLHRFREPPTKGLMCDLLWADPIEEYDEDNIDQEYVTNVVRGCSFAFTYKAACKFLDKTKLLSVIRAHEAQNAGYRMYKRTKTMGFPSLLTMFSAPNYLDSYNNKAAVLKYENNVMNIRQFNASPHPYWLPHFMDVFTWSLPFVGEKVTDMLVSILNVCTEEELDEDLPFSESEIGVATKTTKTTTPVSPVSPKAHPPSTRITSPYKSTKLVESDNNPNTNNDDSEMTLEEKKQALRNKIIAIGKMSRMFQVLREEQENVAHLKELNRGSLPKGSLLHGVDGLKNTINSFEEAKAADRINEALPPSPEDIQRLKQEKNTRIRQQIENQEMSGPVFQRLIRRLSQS

[18] = fluconazole-exposed Candida albicans growth modulators – fluorescence, retest, confirmation (AID 2467); type: functional, cell-based
[19] = target: Ras and Rab interactor 1/Tyrosine-protein kinase ABL1 (Homo sapiens, UniProt P00519+Q13671); type: functional;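 also: biochemical TR-FRET dose-response test measuring inhibition of binding between Rin1 and Abl proteins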
Ras and Rab interactor 1/Tyrosine-protein kinase ABL1, sequence (P00519 whole entry): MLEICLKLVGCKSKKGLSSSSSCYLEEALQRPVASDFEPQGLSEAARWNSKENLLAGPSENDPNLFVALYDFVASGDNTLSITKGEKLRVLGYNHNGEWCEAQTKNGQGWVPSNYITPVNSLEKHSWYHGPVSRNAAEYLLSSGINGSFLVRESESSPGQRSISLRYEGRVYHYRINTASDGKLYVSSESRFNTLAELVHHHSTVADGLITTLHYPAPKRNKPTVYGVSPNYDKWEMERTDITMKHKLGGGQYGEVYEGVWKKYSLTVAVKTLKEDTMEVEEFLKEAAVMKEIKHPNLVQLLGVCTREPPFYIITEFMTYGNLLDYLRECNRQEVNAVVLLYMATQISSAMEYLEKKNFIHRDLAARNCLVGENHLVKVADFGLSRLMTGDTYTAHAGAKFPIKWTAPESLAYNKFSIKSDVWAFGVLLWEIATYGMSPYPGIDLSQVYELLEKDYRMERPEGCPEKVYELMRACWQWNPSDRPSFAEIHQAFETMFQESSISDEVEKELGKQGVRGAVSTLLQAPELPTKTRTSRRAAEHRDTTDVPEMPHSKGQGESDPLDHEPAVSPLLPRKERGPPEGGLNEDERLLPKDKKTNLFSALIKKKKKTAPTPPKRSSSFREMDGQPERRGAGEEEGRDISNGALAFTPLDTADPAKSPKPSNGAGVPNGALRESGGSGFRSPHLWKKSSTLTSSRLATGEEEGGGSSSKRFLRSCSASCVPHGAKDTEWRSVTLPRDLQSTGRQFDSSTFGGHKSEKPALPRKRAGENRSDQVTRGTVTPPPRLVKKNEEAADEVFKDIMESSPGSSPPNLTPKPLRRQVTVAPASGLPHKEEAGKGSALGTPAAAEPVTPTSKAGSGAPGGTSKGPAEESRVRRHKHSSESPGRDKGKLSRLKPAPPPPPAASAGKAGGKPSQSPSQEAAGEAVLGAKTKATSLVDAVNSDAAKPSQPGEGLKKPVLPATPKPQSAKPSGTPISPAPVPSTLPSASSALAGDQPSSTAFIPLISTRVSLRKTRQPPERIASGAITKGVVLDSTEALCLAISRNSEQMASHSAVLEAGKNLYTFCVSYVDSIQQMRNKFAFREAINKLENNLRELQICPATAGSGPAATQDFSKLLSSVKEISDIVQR
Ras and Rab interactor 1/Tyrosine-protein kinase ABL1, sequence (Q13671 whole entry): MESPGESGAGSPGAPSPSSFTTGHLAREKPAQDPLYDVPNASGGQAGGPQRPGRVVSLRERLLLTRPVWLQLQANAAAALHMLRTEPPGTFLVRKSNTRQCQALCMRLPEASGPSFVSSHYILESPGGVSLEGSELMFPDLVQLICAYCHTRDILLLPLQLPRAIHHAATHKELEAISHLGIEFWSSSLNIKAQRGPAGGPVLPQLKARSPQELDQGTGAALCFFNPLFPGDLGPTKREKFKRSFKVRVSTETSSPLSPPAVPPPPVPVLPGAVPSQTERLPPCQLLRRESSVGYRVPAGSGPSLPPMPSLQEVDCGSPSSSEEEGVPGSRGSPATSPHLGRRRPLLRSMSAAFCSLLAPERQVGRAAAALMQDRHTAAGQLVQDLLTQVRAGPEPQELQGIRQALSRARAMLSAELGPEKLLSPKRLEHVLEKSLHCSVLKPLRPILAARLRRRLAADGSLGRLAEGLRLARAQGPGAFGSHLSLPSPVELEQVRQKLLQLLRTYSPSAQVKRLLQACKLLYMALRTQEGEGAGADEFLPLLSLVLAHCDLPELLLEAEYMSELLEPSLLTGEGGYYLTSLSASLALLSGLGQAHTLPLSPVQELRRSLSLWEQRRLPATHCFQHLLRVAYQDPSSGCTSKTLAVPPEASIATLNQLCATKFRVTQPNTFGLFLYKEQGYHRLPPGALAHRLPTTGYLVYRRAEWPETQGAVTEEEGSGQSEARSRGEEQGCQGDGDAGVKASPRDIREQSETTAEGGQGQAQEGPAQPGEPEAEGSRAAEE

Melanocortin receptor 4, sequence (P32245 whole entry): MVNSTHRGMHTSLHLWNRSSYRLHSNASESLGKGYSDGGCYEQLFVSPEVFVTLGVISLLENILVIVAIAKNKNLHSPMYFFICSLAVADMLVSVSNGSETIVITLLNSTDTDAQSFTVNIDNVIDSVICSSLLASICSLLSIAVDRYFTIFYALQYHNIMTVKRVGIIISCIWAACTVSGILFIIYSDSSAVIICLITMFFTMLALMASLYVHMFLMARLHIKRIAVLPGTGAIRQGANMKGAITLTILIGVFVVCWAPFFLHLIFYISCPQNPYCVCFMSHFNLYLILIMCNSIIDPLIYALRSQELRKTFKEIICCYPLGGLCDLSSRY

| Structure (SMILES) | IC50 (Orexin receptor type 2 [2]) | IC50 [3] | IC50 (CHO-K1) | IC50 (Orexin receptor type 2 [4]) | IC50 [5] | IC50 [6] | other results |
| --- | --- | --- | --- | --- | --- | --- | --- |
| COc1cc(NS(=O)(=O)c2ccc(NC(=S)NC(=O)c3sc4ccccc4c3Cl)cc2)ncn1 | – | – | – | – | – | – | EC50 (Melanocortin receptor 4): > 89.2 µM (inactive); IC50 [1]: 11.4 µM (not active) |
| Cc1cc(Br)cc2c1NC(=O)C2(c1c(C)n(C)n(-c2ccccc2)c1=O)c1c(C)n(C)n(-c2ccccc2)c1=O | 0.99 µM (active) | 1.28 µM (active) | > 66.2 µM (inactive) | > 88.8 µM (inactive) | > 49.8 µM (inactive) | 6.52 µM (active) | – |
| CC(=O)Cc1cc(O)c2ccccc2c1OC(=O)c1ccccc1 | – | – | – | – | – | – | EC50 [7]: > 260 µM (inactive); IC50 [8]: 14.6 µM (inactive) |
| O=c1[nH]c(=S)[nH]cc1Oc1ccc(Cl)cc1Cl | – | – | – | – | – | – | IC50 [9]: > 66 µM (inactive); EC50 [10]: > 104 µM (inactive); IC50 [11]: > 66 µM (inactive) |
| O=C(Cn1c(=O)n(Cc2ccco2)c(=O)c2c3c(sc21)CCCC3)Nc1ccccc1 | – | – | – | – | – | – | IC50 [8]: 22.2 µM (inactive) |
| Cc1c(O)c2c3c(cccc3c1O)C(=O)N(c1ccccc1)C2=O | – | – | – | – | – | – | EC50 [12]: > 79.4 µM (not active); EC50 [13]: > 150 µM (inactive); EC50 [14]: 82.8 µM (active); EC50 [15]: > 79.4 µM (not active); EC50 [16]: > 79.4 µM (inactive); EC50 (Troponin, cardiac muscle): 2.9 µM (active); EC50 [17]: > 180 µM (inactive); EC50 [18]: 0.492 µM (active) |
| Cc1nc2c(-c3ccccc3)c(C)nn2c(N)c1-c1ccccc1 | > 50 µM (inactive) | 5.34 µM (active) | > 66.2 µM (inactive) | 24.9 µM (inactive) | 49 µM (inactive) | 13.3 µM (inactive) | – |
| O=C1C(Cl)=C(NCc2ccco2)C(=O)c2ccccc21 | – | – | – | – | – | – | EC50 [10]: > 104 µM (inactive) |
| CN(CCc1ccccc1)C(=O)c1ccc(NC(=O)Cc2ccc(NC(=O)C3CCN(C(=O)C4CCCCC4)CC3)cc2)cc1 | – | – | – | – | – | – | IC50 [19]: 11.2 µM (inactive) |
| Cn1c(N)c(C(=O)N/N=C/c2ccccc2)sc1=S | > 50 µM (inactive) | 1.59 µM (active) | > 66.2 µM (inactive) | > 88.8 µM (inactive) | > 49.7 µM (inactive) | 2.75 µM (active) | – |
